Source: article PMC9170688, “Gametocyte-specific and all-blood-stage transmission-blocking chemotypes discovered from high throughput screening on Plasmodium falciparum gametocytes” (Communications Biology, 2022)

Assays:
[1] = test system: P. falciparum NF54 hsp86-PpyRE13 gametocytes; assay: P. falciparum gametocyte luminescence assay (PfLuc), line NF54 hsp86-PpyRE13; assay type: cell-based, Plasmodium falciparum; details: for IC50: Plasmodium falciparum, NF54, read-out: Pf Gametocytes NF54 HSP86 (IC50 nM); for gametocyte specificity / selectivity (gametocytes vs asexual stages): NF54 hsp86-PpyRE13, ratio of asexual stage (pLDH) to gametocyte (PfLuc) IC50
Procedure: (§1) To exclude false positive compounds that may interfere with the click beetle CBG99 luciferase signal and to confirm the activity on gametocytes produced by other P. falciparum lines, we tested the above 638 compounds at a single concentration of 10 µM on gametocytes from two NF54 strain derived lines: pfs16-GFP-PyLUC (Photinus pyralis luciferase under the same pfs16 promoter)[14],[16],[27] and hsp86-PpyRE13 that was generated for this work to express the mutated Photinus pyralis PpyRE13 luciferase in gametocytes under the promoter of the pfhsp86 gene.
(§2) With the selected 84 compounds, the subsequent step aimed at determining the gametocyte inhibition potency and the parasite stage selectivity between the gametocytes and the asexual stages in the NF54 hsp86-PpyRE13. […] Similar data were obtained considering the gametocyte IC50 values measured in the NF54 pfs16-GFP-PyLUC strain (see Supplementary Data 2).
(§3) Parasite gametocyte luminescence assays were performed in 384-well plates (Thermo, 4332, USA) by infected red blood cells seeded at 40 µL/well at a haematocrit of 0.625% for the strain 3D7elo1-pfs16-CBG99, 1.875% for both strains NF54 hsp86-PpyRE13 and NF54 pfs16-GFP-PyLUC. Assay were performed in the medium: 10.44 g/L RPMI 1640 Medium (Gibco, 51800043), 5.95 g/L HEPES (Sigma, H4034), 50 mg/L Hypoxantine (Sigma, 56700), 10% heat inactivated human serum, 10 ml of Neomycin solution (Sigma, N1142) and 2.1 g/L NaHCO3 (Sigma, 144-55-8). Compounds or DMSO as control were pre dispensed on plates, from 10 mM DMSO stock solutions, via an acoustic droplet ejection device (ATS-100, EDC Biosystems) to achieve the final desired concentration. Assay plates were incubated for 48 h at 37 °C in 4% CO2, 3% O2, and 93% N2 modified atmosphere. After incubation, 20 µL/well of a solution of luciferin (Regis, 1-360242-200) potassium/sodium salt (300 µg/ml) are added to the assay plates and read at suitable luminescence detection after 1 min incubation at room temperature. The whole HTS was performed in 7 rounds of 30–80 plates each in two months’ time.

[2] = test system: P. falciparum NF54 pfs16-GFP-PyLUC gametocytes; assay: P. falciparum gametocyte luminescence assay (PfLuc), line NF54 pfs16-GFP-PyLUC; assay type: cell-based, Plasmodium falciparum; details: Plasmodium falciparum, NF54, read-out: Pf Gametocytes NF54 pfs16 (IC50 nM)
Procedure: as §1, §2, §3

Row | Structure (SMILES) | IC50 [1] | IC50 [2] | gametocyte specificity / selectivity (gametocytes vs asexual stages) [1]
1 | OC(c1ccc(Cl)cc1)C1CCN(CCCN2CCC(C(O)c3ccc(Cl)cc3)CC2)CC1 (centres unmarked) [Compound 13] | 1600 nM | 582 nM | –
2 | O=C(c1ccc([N+](=O)[O-])o1)N1CCC(Cn2cnc3ccccc32)CC1 [Compound 69] | 1500 nM | 555 nM | around six
3 | COc1ccccc1Cn1cc2c(-c3ccc(F)cc3)nnc-2c2cc(OC)c(OC)cc21 [Compound 31] | 496 nM | 277 nM | –
4 | Cc1ccc(Nc2cc(C)nc(Nc3ccc(NC(=O)c4cc5ccccc5oc4=O)cc3)n2)cc1 [Compound 63] | 1870 nM | 225 nM | –
5 | COc1cc(CNCC2CCNCC2)ccc1OCc1cccc(Cl)c1 [Compound 53] | 1820 nM | 876 nM | –
6 | COc1ccc(NC(=O)Nc2ccc(Nc3nc(C)cc(Nc4ccc(C)cc4)n3)cc2)cc1 [Compound 65] | 431 nM | 480 nM | –
7 | COc1ccc(Nc2cc(C)nc(Nc3ccc(NC(=O)c4cc(C)cc(C)c4)cc3)n2)cc1 [Compound 64] | 215 nM | 264 nM | –
8 | Clc1ccc(Nc2nc(-c3ccccn3)cs2)nc1 [Compound 39] | 382 nM | 308 nM | –
9 | Cc1ccc2nc(-c3ccccc3)c(CSc3cccc[n+]3[O-])n2c1 [Compound 16] | 219 nM | 167 nM | around 6 fold
